Tests used:
Nakaseomyces glabratus [1] = experiment: Antifungal activity against Candida glabrata 20/I after 24 hrs by broth microdilution method; format: functional
Aspergillus fumigatus [2] = experiment: Antifungal activity against Aspergillus fumigatus 231 after 24 hrs by broth microdilution method; format: functional; settings: Aspergillus fumigatus, 231, 24 h
Candida tropicalis [3] = experiment: Antifungal activity against Candida tropicalis 156 after 24 hrs by broth microdilution method; format: functional; settings: Candida tropicalis, 156, 24 h
Candida albicans [4] = experiment: Antifungal activity against Candida albicans ATCC 44859 after 24 hrs by broth microdilution method; format: functional; settings: ATCC 44859, 24 h
Lichtheimia corymbifera [5] = experiment: Antifungal activity against Absidia corymbifera 272 after 24 hrs by broth microdilution method; format: functional; settings: Lichtheimia corymbifera, 272, 24 h
Trichosporon asahii [6] = experiment: Antifungal activity against Trichosporon asahii 1188 after 24 hrs by broth microdilution method; format: functional; settings: Trichosporon asahii, 1188, 24 h
[7] = tested on: Trichophyton mentagrophytes; experiment: Antifungal activity against Trichophyton mentagrophytes 445 after 72 hrs by broth microdilution method; format: functional; settings: Trichophyton mentagrophytes, 445, 72 h
Pichia kudriavzevii [8] = experiment: Antifungal activity against Candida krusei E28 after 24 hrs by broth microdilution method; format: functional; settings: E28, 24 h
[9] = tested on: Mycobacterium tuberculosis; experiment: Antimycobacterial activity against Mycobacterium tuberculosis H37Rv CNCTC My 331/88 after 21 days by micromethod; format: functional; settings: H37Rv CNCTC My 331/88, 504 h
Nakaseomyces glabratus [10] = experiment: Antifungal activity against Candida glabrata 20/I after 48 hrs by broth microdilution method; format: functional
[11] = tested on: Trichophyton mentagrophytes; experiment: Antifungal activity against Trichophyton mentagrophytes 445 after 120 hrs by broth microdilution method; format: functional; settings: Trichophyton mentagrophytes, 445, 120 h
Staphylococcus aureus [12] = experiment: Antibacterial activity against Staphylococcus aureus ATCC 6538 after 24 hrs by broth microdilution method; format: functional; settings: ATCC 6538, 24 h
Staphylococcus aureus [13] = experiment: Antibacterial activity against methicillin-resistant Staphylococcus aureus HK5996/08 after 24 hrs by broth microdilution method; format: functional; settings: HK5996/08, 24 h
Mycobacterium kansasii [14] = experiment: Antimycobacterial activity against Mycobacterium kansasii CNCTC My 235/80 after 7 days by micromethod; format: functional; settings: CNCTC My 235/80, 168 h
Enterococcus sp. [15] = experiment: Antibacterial activity against Enterococcus sp. HK14365/08 after 48 hrs by broth microdilution method; format: functional; settings: HK14365/08, 48 h
Klebsiella pneumoniae [16] = experiment: Antibacterial activity against Klebsiella pneumoniae HK11750/08 after 24 hrs by broth microdilution method; format: functional; settings: HK11750/08, 24 h
Candida tropicalis [17] = experiment: Antifungal activity against Candida tropicalis 156 after 48 hrs by broth microdilution method; format: functional; settings: Candida tropicalis, 156, 48 h
Enterococcus sp. [18] = experiment: Antibacterial activity against Enterococcus sp. HK14365/08 after 24 hrs by broth microdilution method; format: functional; settings: HK14365/08, 24 h
CHO-K1 = experiment: Cytotoxicity against CHOK1 cells after 24 hrs by MTT assay; format: cell-based; settings: Cricetulus griseus, CHO-K1, 24 h
Pichia kudriavzevii [19] = experiment: Antifungal activity against Candida krusei E28 after 48 hrs by broth microdilution method; format: functional; settings: E28, 48 h
Pseudomonas aeruginosa [20] = experiment: Antibacterial activity against Pseudomonas aeruginosa ATCC 9027 after 48 hrs by broth microdilution method; format: functional; settings: ATCC 9027, 48 h
Mycobacterium avium [21] = experiment: Antimycobacterial activity against Mycobacterium avium CNCTC My 330/80 after 21 days by micromethod; format: functional; settings: CNCTC My 330/80, 504 h
[22] = tested on: Staphylococcus epidermidis; experiment: Antibacterial activity against Staphylococcus epidermidis HK6966/08 after 48 hrs by broth microdilution method; format: functional; settings: HK6966/08, 48 h
Mycobacterium kansasii [23] = experiment: Antimycobacterial activity against Mycobacterium kansasii isolate 6509/96 after 7 days by micromethod; format: functional; settings: isolate 6509/96, 168 h
Pseudomonas aeruginosa [24] = experiment: Antibacterial activity against Pseudomonas aeruginosa ATCC 9027 after 24 hrs by broth microdilution method; format: functional; settings: ATCC 9027, 24 h
[25] = tested on: Mycobacterium tuberculosis; experiment: Antimycobacterial activity against Mycobacterium tuberculosis H37Rv CNCTC My 331/88 after 14 days by micromethod; format: functional; settings: H37Rv CNCTC My 331/88, 336 h
Staphylococcus aureus [26] = experiment: Antibacterial activity against methicillin-resistant Staphylococcus aureus HK5996/08 after 48 hrs by broth microdilution method; format: functional; settings: HK5996/08, 48 h
Mycobacterium kansasii [27] = experiment: Antimycobacterial activity against Mycobacterium kansasii CNCTC My 235/80 after 21 days by micromethod; format: functional; settings: CNCTC My 235/80, 504 h
Klebsiella pneumoniae [28] = experiment: Antibacterial activity against extended spectrum beta-lactamase producing Klebsiella pneumoniae HK14368/08 after 24 hrs by broth microdilution method; format: functional; settings: HK14368/08, 24 h
Candida albicans [29] = experiment: Antifungal activity against Candida albicans ATCC 44859 after 48 hrs by broth microdilution method; format: functional; settings: ATCC 44859, 48 h
Aspergillus fumigatus [30] = experiment: Antifungal activity against Aspergillus fumigatus 231 after 48 hrs by broth microdilution method; format: functional; settings: Aspergillus fumigatus, 231, 48 h
Mycobacterium kansasii [31] = experiment: Antimycobacterial activity against Mycobacterium kansasii CNCTC My 235/80 after 14 days by micromethod; format: functional; settings: CNCTC My 235/80, 336 h
Mycobacterium kansasii [32] = experiment: Antimycobacterial activity against Mycobacterium kansasii isolate 6509/96 after 21 days by micromethod; format: functional; settings: isolate 6509/96, 504 h
Klebsiella pneumoniae [33] = experiment: Antibacterial activity against extended spectrum beta-lactamase producing Klebsiella pneumoniae HK14368/08 after 48 hrs by broth microdilution method; format: functional; settings: HK14368/08, 48 h
[34] = tested on: Staphylococcus epidermidis; experiment: Antibacterial activity against Staphylococcus epidermidis HK6966/08 after 24 hrs by broth microdilution method; format: functional; settings: HK6966/08, 24 h
Trichosporon asahii [35] = experiment: Antifungal activity against Trichosporon asahii 1188 after 48 hrs by broth microdilution method; format: functional; settings: Trichosporon asahii, 1188, 48 h
Escherichia coli [36] = experiment: Antibacterial activity against Escherichia coli ATCC 8739 after 48 hrs by broth microdilution method; format: functional; settings: ATCC 8739, 48 h
Escherichia coli [37] = experiment: Antibacterial activity against Escherichia coli ATCC 8739 after 24 hrs by broth microdilution method; format: functional; settings: ATCC 8739, 24 h
Lichtheimia corymbifera [38] = experiment: Antifungal activity against Absidia corymbifera 272 after 48 hrs by broth microdilution method; format: functional; settings: Lichtheimia corymbifera, 272, 48 h
Mycobacterium kansasii [39] = experiment: Antimycobacterial activity against Mycobacterium kansasii isolate 6509/96 after 14 days by micromethod; format: functional; settings: isolate 6509/96, 336 h
Mycobacterium avium [40] = experiment: Antimycobacterial activity against Mycobacterium avium CNCTC My 330/80 after 14 days by micromethod; format: functional; settings: CNCTC My 330/80, 336 h
Staphylococcus aureus [41] = experiment: Antibacterial activity against Staphylococcus aureus ATCC 6538 after 48 hrs by broth microdilution method; format: functional; settings: ATCC 6538, 48 h
Klebsiella pneumoniae [42] = experiment: Antibacterial activity against Klebsiella pneumoniae HK11750/08 after 48 hrs by broth microdilution method; format: functional; settings: HK11750/08, 48 h

C[C@@H]1[C@H](O)[C@@H](C)/C=C/C=C/C=C/C=C/C=C/C=C/C=C/[C@H](O[C@@H]2O[C@H](C)[C@@H](O)[C@H](N)[C@@H]2O)C[C@@H]2O[C@](O)(C[C@@H](O)C[C@@H](O)[C@H](O)CC[C@@H](O)C[C@@H](O)CC(=O)O[C@H]1C)C[C@H](O)[C@H]2C(=O)O [AMPHOTERICIN B]
1 µM: MIC (Lichtheimia corymbifera [5]) | MIC (Pichia kudriavzevii [8])
0.54 µM: MIC (Nakaseomyces glabratus [1]) | MIC (Aspergillus fumigatus [2]) | MIC (Candida tropicalis [3]) | MIC (Candida albicans [4]) | MIC [7]
0.27 µM: MIC (Trichosporon asahii [6])

O=[N+]([O-])c1cc(-c2nnnn2Cc2ccccc2)cc([N+](=O)[O-])c1
2 µM: MIC99 [9] | MIC99 (Mycobacterium kansasii [23]) | MIC99 [25]
31.2 µM: MIC (Staphylococcus aureus [13])
32 µM: MIC99 (Mycobacterium avium [21])
62.5 µM: MIC (Staphylococcus aureus [12]) | MIC (Candida albicans [4]) | MIC (Enterococcus sp. [15]) | MIC (Enterococcus sp. [18]) | MIC [22] | MIC (Candida albicans [29]) | MIC [34] | MIC (Escherichia coli [36]) | MIC (Staphylococcus aureus [41])
16 µM: MIC99 (Mycobacterium avium [40])
125 µM: MIC (Klebsiella pneumoniae [33]) | MIC (Escherichia coli [37]) | MIC (Klebsiella pneumoniae [42])
250 µM: MIC (Nakaseomyces glabratus [1]) | MIC (Nakaseomyces glabratus [10]) | MIC (Candida tropicalis [3]) | MIC (Klebsiella pneumoniae [16]) | MIC (Candida tropicalis [17]) | MIC (Pichia kudriavzevii [19]) | MIC (Klebsiella pneumoniae [28]) | MIC (Trichosporon asahii [6]) | MIC (Trichosporon asahii [35]) | MIC (Pichia kudriavzevii [8])
500 µM: MIC [11] | MIC (Lichtheimia corymbifera [5]) | MIC (Pseudomonas aeruginosa [20]) | MIC (Pseudomonas aeruginosa [24]) | MIC (Lichtheimia corymbifera [38]) | MIC [7]
18 µM: IC50 (CHO-K1)
8 µM: MIC99 (Mycobacterium kansasii [14]) | MIC99 (Mycobacterium kansasii [27]) | MIC99 (Mycobacterium kansasii [31])
15.6 µM: MIC (Staphylococcus aureus [26])
4 µM: MIC99 (Mycobacterium kansasii [32]) | MIC99 (Mycobacterium kansasii [39])
> 500 µM: MIC (Aspergillus fumigatus [2]) | MIC (Aspergillus fumigatus [30])
